From ChEMBL document CHEMBL1201861, “Genomics of Drug Sensitity in Cancer screening data, Wellcome Trust Sanger Institute”

Legend:
Experiment in all cases: cells
Conditions in all cases: Homo sapiens
SW684 = assay type: functional, cell-based;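 also: growth inhibition of human SW684 cells, measured by a cell viability assay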
Description: SANGER: Inhibition of human SW684 cell growth in a cell viability assay.

BB49-HNC = assay type: functional, cell-based;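 also: cell viability assay read-out, reported as inhibition of BB49-HNC cell growth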
Description: SANGER: Inhibition of human BB49-HNC cell growth in a cell viability assay.

JAR = assay type: functional, cell-based;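 also: growth inhibition of human JAR cells determined with a cell viability assay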
Description: SANGER: Inhibition of human JAR cell growth in a cell viability assay.

MPP-89 = assay type: functional, cell-based;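 also: growth inhibition of human MPP-89 cells, read out with a cell viability assay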
Description: SANGER: Inhibition of human MPP-89 cell growth in a cell viability assay.

SW 962 = assay type: functional, cell-based;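 also: growth inhibition of human SW962 cells, read out by a cell viability assay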
Description: SANGER: Inhibition of human SW962 cell growth in a cell viability assay.

NCI-H526 = assay type: functional, cell-based;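 also: growth inhibition of the human NCI-H526 cell line, measured by a cell viability assay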
Description: SANGER: Inhibition of human NCI-H526 cell growth in a cell viability assay.

CW-2 = assay type: functional, cell-based;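 also: growth inhibition of CW-2 cells, read out by a cell viability assay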
Description: SANGER: Inhibition of human CW-2 cell growth in a cell viability assay.

C2BBe1 = assay type: functional, cell-based;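 also: growth inhibition of C2BBe1 cells, read out through a viability assay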
Description: SANGER: Inhibition of human C2BBe1 cell growth in a cell viability assay.

TE-1 = assay type: functional, cell-based;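 also: growth inhibition of the human TE-1 cell line, read out with a cell viability assay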
Description: SANGER: Inhibition of human TE-1 cell growth in a cell viability assay.

KE-37 = assay type: functional, cell-based;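 also: growth inhibition of KE-37 cells, read out with a cell viability assay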
Description: SANGER: Inhibition of human KE-37 cell growth in a cell viability assay.

LB771-HNC = assay type: functional, cell-based;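 also: growth inhibition of LB771-HNC human cells, read out with a cell viability assay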
Description: SANGER: Inhibition of human LB771-HNC cell growth in a cell viability assay.

CP66-MEL = assay type: functional, cell-based;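 also: growth inhibition of CP66-MEL cells determined in a cell viability assay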
Description: SANGER: Inhibition of human CP66-MEL cell growth in a cell viability assay.

HuTu80 = assay type: functional, cell-based, HUTU-80;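 also: growth inhibition of HuTu80 human cells, determined with a cell viability readout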
Description: SANGER: Inhibition of human HUTU-80 cell growth in a cell viability assay.

BB30-HNC = assay type: functional, cell-based;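 also: growth inhibition of the cultured cell line, read out by a cell viability assay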
Description: SANGER: Inhibition of human BB30-HNC cell growth in a cell viability assay.

NH-12 = assay type: functional, cell-based;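 also: growth inhibition of NH-12 cells, read out with a cell viability assay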
Description: SANGER: Inhibition of human NH-12 cell growth in a cell viability assay.

SHP77 = assay type: functional, cell-based, SHP-77;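 also: growth inhibition of human SHP-77 cells measured by a cell viability assay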
Description: SANGER: Inhibition of human SHP-77 cell growth in a cell viability assay.

MHH-NB-11 = assay type: functional, cell-based;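 also: growth inhibition of human MHH-NB-11 cells, read out by a cell viability assay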
Description: SANGER: Inhibition of human MHH-NB-11 cell growth in a cell viability assay.

COLO-829 = assay type: functional, cell-based
Description: SANGER: Inhibition of human COLO-829 cell growth in a cell viability assay.

BV-173 = assay type: functional, cell-based
Description: SANGER: Inhibition of human BV-173 cell growth in a cell viability assay.

Mo = assay type: functional, cell-based
Description: SANGER: Inhibition of human Mo-T cell growth in a cell viability assay.

NKM-1 = assay type: functional, cell-based;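 also: growth inhibition of NKM-1 cells, read out with a cell viability assay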
Description: SANGER: Inhibition of human NKM-1 cell growth in a cell viability assay.

NB6 = assay type: functional, cell-based;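 also: growth inhibition of NB6 cells, read out by a cell viability assay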
Description: SANGER: Inhibition of human NB6 cell growth in a cell viability assay.

COR-L88 = assay type: functional, cell-based;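 also: growth inhibition of COR-L88 cells, read out with a cell viability assay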
Description: SANGER: Inhibition of human COR-L88 cell growth in a cell viability assay.

EW-3 = assay type: functional, cell-based;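 also: cell viability assay read-out, IC50 reflects inhibition of growth of the EW-3 cells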
Description: SANGER: Inhibition of human EW-3 cell growth in a cell viability assay.

COLO-320-HSR = assay type: functional, cell-based;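 also: growth inhibition of COLO-320-HSR cells, determined with a cell viability assay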
Description: SANGER: Inhibition of human COLO-320-HSR cell growth in a cell viability assay.

LS-411N = assay type: functional, cell-based
D283 Med = assay type: functional, cell-based
Description: SANGER: Inhibition of human D-283MED cell growth in a cell viability assay.

LS-513 = assay type: functional, cell-based
Description: SANGER: Inhibition of human LS-513 cell growth in a cell viability assay.

OCUB-M = assay type: functional, cell-based;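 also: growth inhibition of the cancer cell line, read out through a cell viability assay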
Description: SANGER: Inhibition of human OCUB-M cell growth in a cell viability assay.

NCI-H1092 = assay type: functional, cell-based;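 also: cell growth inhibition measured with a cell viability assay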
Description: SANGER: Inhibition of human NCI-H1092 cell growth in a cell viability assay.

L-428 = assay type: functional, cell-based
Description: SANGER: Inhibition of human L-428 cell growth in a cell viability assay.

NCI-H510A = assay type: functional, cell-based;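 also: growth inhibition of NCI-H510A cells, read out with a cell viability assay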
Description: SANGER: Inhibition of human NCI-H510A cell growth in a cell viability assay.

TE-8 = assay type: functional, cell-based;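 also: growth inhibition of TE-8 cells, measured with a cell viability readout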
Description: SANGER: Inhibition of human TE-8 cell growth in a cell viability assay.

LNCaP-Clone-FGC = assay type: functional, cell-based
Description: SANGER: Inhibition of human LNCaP-Clone-FGC cell growth in a cell viability assay.

LU-134-A = assay type: functional, cell-based
Description: SANGER: Inhibition of human LU-134-A cell growth in a cell viability assay.

IST-MES1 = assay type: functional, cell-based;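 also: growth inhibition of IST-MES1 cells, measured with a cell viability assay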
Description: SANGER: Inhibition of human IST-MES1 cell growth in a cell viability assay.

COLO-800 = assay type: functional, cell-based;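 also: growth inhibition of COLO-800 cells, read out with a cell viability assay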
Description: SANGER: Inhibition of human COLO-800 cell growth in a cell viability assay.

LB1047-RCC = assay type: functional, cell-based;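 also: inhibition of cell growth, determined with a cell viability assay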
Description: SANGER: Inhibition of human LB1047-RCC cell growth in a cell viability assay.

HL-60 = assay type: functional, cell-based;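 also: growth inhibition of human HL-60 cells, read out with a cell viability assay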
Description: SANGER: Inhibition of human HL-60 cell growth in a cell viability assay.

SK-UT-1 = assay type: functional, cell-based;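 also: growth inhibition of SK-UT-1 cells, measured by a cell viability assay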
Description: SANGER: Inhibition of human SK-UT-1 cell growth in a cell viability assay.

COLO-684 = assay type: functional, cell-based
Description: SANGER: Inhibition of human COLO-684 cell growth in a cell viability assay.

Lu-65 = assay type: functional, cell-based;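 also: growth inhibition of Lu-65 cancer cells, read out by a cell viability assay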
Description: SANGER: Inhibition of human LU-65 cell growth in a cell viability assay.

COLO-668 = assay type: functional, cell-based
Description: SANGER: Inhibition of human COLO-668 cell growth in a cell viability assay.

LB831-BLC = assay type: functional, cell-based;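 also: growth inhibition of LB831-BLC cells, read out with a cell viability assay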
Description: SANGER: Inhibition of human LB831-BLC cell growth in a cell viability assay.

KARPAS-299 = assay type: functional, cell-based
Description: SANGER: Inhibition of human KARPAS-299 cell growth in a cell viability assay.

BT-474 = assay type: functional, cell-based
Description: SANGER: Inhibition of human BT-474 cell growth in a cell viability assay.

MSTO-211H = assay type: functional, cell-based
Description: SANGER: Inhibition of human MSTO-211H cell growth in a cell viability assay.

D-263MG = assay type: functional, cell-based
Description: SANGER: Inhibition of human D-263MG cell growth in a cell viability assay.

ALL-PO = assay type: functional, cell-based;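 also: growth inhibition of ALL-PO cells, read out by a cell viability assay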
Description: SANGER: Inhibition of human ALL-PO cell growth in a cell viability assay.

EW-18 = assay type: functional, cell-based;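 also: growth inhibition of EW-18 cells, read out by a cell viability assay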
Description: SANGER: Inhibition of human EW-18 cell growth in a cell viability assay.

NCI-H1650 = assay type: functional, cell-based;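 also: growth inhibition of human NCI-H1650 cells measured by a cell viability assay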
Description: SANGER: Inhibition of human NCI-H1650 cell growth in a cell viability assay.

NB10 = assay type: functional, cell-based;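 also: growth inhibition of NB10 cells, read out by a cell viability assay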
Description: SANGER: Inhibition of human NB10 cell growth in a cell viability assay.

LB373-MEL-D = assay type: functional, cell-based;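 also: growth inhibition of the cell line, read out in a cell viability assay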
Description: SANGER: Inhibition of human LB373-MEL-D cell growth in a cell viability assay.

HAL-01 = assay type: functional, cell-based;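 also: growth inhibition of human HAL-01 cells, read out with a cell viability assay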
Description: SANGER: Inhibition of human HAL-01 cell growth in a cell viability assay.

OVCAR-4 = assay type: functional, cell-based;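 also: growth inhibition of human OVCAR-4 cells, measured with a cell viability assay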
Description: SANGER: Inhibition of human OVCAR-4 cell growth in a cell viability assay.

RH-1 = assay type: functional, cell-based;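 also: growth inhibition of human RH-1 cells, read out with a cell viability assay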
Description: SANGER: Inhibition of human RH-1 cell growth in a cell viability assay.

KY821 = assay type: functional, cell-based;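 also: growth inhibition of human KY821 cells, read out by a cell viability assay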
Description: SANGER: Inhibition of human KY821 cell growth in a cell viability assay.

EKVX = assay type: functional, cell-based;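 also: growth inhibition of human EKVX cells, read out with a cell viability assay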
Description: SANGER: Inhibition of human EKVX cell growth in a cell viability assay.

LXF-289 cell line = assay type: functional, cell-based
Description: SANGER: Inhibition of human LXF-289 cell growth in a cell viability assay.

GI-ME-N = assay type: functional, cell-based;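 also: growth inhibition of human GI-ME-N cells, read out with a cell viability assay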
Description: SANGER: Inhibition of human GI-ME-N cell growth in a cell viability assay.

DSH1 = assay type: functional, cell-based;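 also: growth inhibition of human DSH1 cells, measured with a cell viability readout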
Description: SANGER: Inhibition of human DSH1 cell growth in a cell viability assay.

EW-11 = assay type: functional, cell-based;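 also: growth inhibition of human EW-11 cells, measured with a cell viability assay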
Description: SANGER: Inhibition of human EW-11 cell growth in a cell viability assay.

NCI-H1355 = assay type: functional, cell-based;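 also: growth inhibition of human NCI-H1355 cells, read out by a cell viability assay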
Description: SANGER: Inhibition of human NCI-H1355 cell growth in a cell viability assay.

TGBC24TKB = assay type: functional, cell-based;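 also: growth inhibition of human TGBC24TKB cells, read out with a cell viability assay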
Description: SANGER: Inhibition of human TGBC24TKB cell growth in a cell viability assay.

A498 = assay type: functional, cell-based;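 also: growth inhibition of human A498 cells, read out with a cell viability assay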
Description: SANGER: Inhibition of human A498 cell growth in a cell viability assay.

Measured: IC50

Cc1ccc(NC(=O)c2cccc(C(C)(C)C#N)c2)cc1Nc1ccc2ncn(C)c(=O)c2c1
1.96 µM: BB30-HNC
3.95 µM: MSTO-211H
0.735 µM: NKM-1
0.154 µM: HL-60
0.0256 µM: COLO-829
0.0741 µM: LS-513
1.66 µM: LB373-MEL-D
1.29 µM: GI-ME-N
0.0916 µM: LS-411N
0.692 µM: BV-173
0.983 µM: HuTu80
0.352 µM: BB49-HNC
0.132 µM: CP66-MEL
1.35 µM: ALL-PO
not listed: TGBC24TKB | A498
> 4 µM: all other assays above

NC(=O)c1ncn([C@@H]2O[C@H](COP(=O)(O)O)[C@@H](O)[C@H]2O)c1N
180 µM: NKM-1
894 µM: COLO-684
376 µM: HL-60
736 µM: TGBC24TKB
207 µM: TE-1
434 µM: HAL-01
1740 µM: MSTO-211H
115 µM: NCI-H526
772 µM: COLO-320-HSR
755 µM: ALL-PO
346 µM: JAR
828 µM: TE-8
1090 µM: EW-11
751 µM: OVCAR-4
896 µM: SW684
1220 µM: NCI-H1092
1190 µM: OCUB-M
959 µM: LU-134-A
534 µM: KE-37
1110 µM: MHH-NB-11
93.8 µM: BV-173
597 µM: C2BBe1
214 µM: BB30-HNC
not listed: COR-L88 | EW-3 | IST-MES1 | KY821 | LXF-289 cell line
> 2000 µM: all other assays above
